Test results: patent US3972872A, “6-[α-(ω-Guanidinoalkanoylamido)acylamido]penicillanic acids” (Pfizer Inc., priority 1975, dated 1976)
Values after ≈ are worked out from the molar mass of the structure shown. Counter-ions that a name gives are not always drawn. Like-named read-outs stand apart in the source and are kept apart here.

Tests used:
[1] = test system: E. coli 266; test: In vitro MIC, E. coli 266, two-fold serial dilution; type: cell-based, Escherichia coli; conditions: unit assumed
Description: (§1) The in vitro spectra of a number of 6-[α-(ω-guanidinoalkanoylamido)acylamido]penicillanic acids of this invention against certain gram-negative bacteria are presented in Table I below. […] Th compounds of Table I have the formula

[2] = test system: Pseudo. aeruginosa 104; test: In vitro MIC, Pseudo. aeruginosa 104; type: cell-based, Pseudomonas aeruginosa; conditions: unit assumed
Description: as §1

[3] = test system: Pseudo. aeruginosa 173; test: In vitro MIC, Pseudo. aeruginosa 173; type: cell-based, Pseudomonas aeruginosa; conditions: unit assumed
Description: as §1

[4] = test system: Pseudo. aeruginosa 490; test: In vitro MIC, Pseudo. aeruginosa 490; type: cell-based, Pseudomonas aeruginosa; conditions: unit assumed
Description: as §1

[5] = test system: Proteus vulgaris A059; test: In vitro MIC, Proteus vulgaris A059; type: cell-based; conditions: unit assumed
Description: as §1

[6] = test system: Proteus mirabilis C015; test: In vitro MIC, Proteus mirabilis C015; type: cell-based; conditions: unit assumed
Description: as §1

[7] = test system: Serratia marcescens A001; test: In vitro MIC, Serratia marcescens A001; type: cell-based; conditions: unit assumed
Description: as §1

[8] = test system: Escherichia coli 266; test: In vivo protection of mice versus Escherichia coli 266; conditions: Escherichia coli, 266, sc, 96 h, read-out: % Protection
Description: (§2) Additionally, the compounds of this invention are active versus gram-positive and gram-negative bacteria in vivo via the parenteral route of administration in animals, including man. Their in vivo activity in animals, including man, by the oral route of administration is more limited as regards susceptible organisms. Nevertheless, oral in vivo activity against Escherichia coli and Staphylococcus aureus is a common property of many compounds of this invention. Table II below presents the comparative in vivo spectra of several compounds within the scope of this invention against D-α-aminobenzylpenicillin (Ampicillin).
(§3) The acute systemic infections in mice were produced by the intraperitoneal inoculation of standardized cultures suspended in 5% hog gastric mucin. Treatment with the drugs was initiated 0.5 hours after inoculation of the infecting organism. A second dose was administered 4 hours later. The PD50 values were calculated after a hold period of 4 days.

[9] = test system: Proteus rettgeri B006; test: In vitro MIC, Proteus rettgeri B006; type: cell-based; conditions: unit assumed
Description: (§4) The in vitro activity of the herein-described compounds renders them useful for topical application in the form of ointments, creams and the like, or for sterilization purposes, e.g., sick room utensils.
as §1

[10] = test system: Proteus mirabilis C020; test: In vitro MIC, Proteus mirabilis C020; type: cell-based; conditions: unit assumed
Description: as §4, §1

[11] = test system: E. coli; test: PD50 versus acute systemic E. coli infection in mice; type: in vivo; conditions: Escherichia coli, 96 h, E. coli, mice
Description: as §2, §3

[12] = test system: S. aureus; test: PD50 versus acute systemic S. aureus infection in mice; type: in vivo; conditions: Staphylococcus aureus, 96 h, S. aureus, mice
Description: as §2, §3

[13] = test system: P. aeruginosa; test: PD50 versus acute systemic P. aeruginosa infection in mice; type: in vivo; conditions: mice; for ED50: Pseudomonas aeruginosa, 96 h, P. aeruginosa, read-out: PD50
Description: as §2, §3

[14] = 50 mg./kg., mice, subcutaneous route

Structure (SMILES): CC1(C)S[C@@H]2[C@H](NC(=O)[C@H](NC(=O)C3CCCN(C(=N)N)C3)c3ccccc3)C(=O)N2[C@H]1C(=O)O (stereo partly shown) [C(NH)NH2, R=H]
- MIC [1]: 6.25 µg/mL (≈ 12.4 µM)
- MIC [2]: 12.5 µg/mL (≈ 24.9 µM)
- MIC [3]: 6.25 µg/mL (≈ 12.4 µM)
- MIC [4]: 1.56 µg/mL (≈ 3.1 µM)
- MIC [5]: 6.25 µg/mL (≈ 12.4 µM)
- MIC [6]: 3.12 µg/mL (≈ 6.21 µM)
- MIC [7]: 6.25 µg/mL (≈ 12.4 µM)
- responders at 50 mg/kg [8, 14]: 80%

Structure (SMILES): CC1(C)S[C@@H]2[C@H](NC(=O)[C@H](NC(=O)CN3CCNC3=N)c3ccccc3)C(=O)N2[C@H]1C(=O)O [CH2 --N--C(NH)--NHCH2 CH2, R=H]
- MIC [1]: 6.25 µg/mL (≈ 13.2 µM)
- MIC [2]: 12.5 µg/mL (≈ 26.3 µM)
- MIC [3]: 12.5 µg/mL (≈ 26.3 µM)
- MIC [4]: 3.12 µg/mL (≈ 6.57 µM)
- MIC [5]: 6.25 µg/mL (≈ 13.2 µM)
- MIC [6]: 3.12 µg/mL (≈ 6.57 µM)
- MIC [7]: 12.5 µg/mL (≈ 26.3 µM)
- responders at 50 mg/kg [8]: 100%

Structure (SMILES): CNC(=N)NCC(=O)N[C@@H](C(=O)N[C@@H]1C(=O)N2[C@@H]1SC(C)(C)[C@@H]2C(=O)O)c1ccccc1 [CH2 --NH--C(NH)NHCH3, R=H]
- MIC [1]: 1.56 µg/mL (≈ 3.37 µM)
- MIC [2]: 1.56 µg/mL (≈ 3.37 µM)
- MIC [3]: 3.12 µg/mL (≈ 6.75 µM)
- MIC [4]: 0.78 µg/mL (≈ 1.69 µM)
- MIC [5]: 3.12 µg/mL (≈ 6.75 µM)
- MIC [6]: 1.56 µg/mL (≈ 3.37 µM)
- MIC [7]: 3.12 µg/mL (≈ 6.75 µM)
- responders at 50 mg/kg [8]: 100%

Structure (SMILES): CC1(C)S[C@@H]2[C@H](NC(=O)[C@H](NC(=O)CCNC(=N)N)c3ccccc3)C(=O)N2[C@H]1C(=O)O [CH2 CH2 NH--C(NH)NH2, R=H, 6-[D-2-Phenyl-2-(Guanidinopropionamido)Acetamido]Penicillanic Acid]
- MIC [1]: 3.12 µg/mL (≈ 6.75 µM)
- MIC [2]: 6.25 µg/mL (≈ 13.5 µM)
- MIC [3]: 3.12 µg/mL (≈ 6.75 µM)
- MIC [4]: 3.12 µg/mL (≈ 6.75 µM)
- MIC [5]: 3.12 µg/mL (≈ 6.75 µM)
- MIC [9]: 50 µg/mL (≈ 108 µM)
- MIC [6]: 0.78 µg/mL (≈ 1.69 µM)
- MIC [10]: 12.5 µg/mL (≈ 27 µM)
- MIC [7]: 6.25 µg/mL (≈ 13.5 µM)
- responders at 50 mg/kg [8, 14]: 70%

Structure (SMILES): CC(C)(C)C(=O)OCOC(=O)[C@@H]1N2C(=O)[C@@H](NC(=O)[C@H](NC(=O)CCNC(=N)N)c3ccccc3)[C@H]2SC1(C)C [CH2 CH2 NH--C(NH)NH2, R=POM, Hydrochloride]
- MIC [1]: 6.25 µg/mL
- MIC [4]: 6.25 µg/mL
- MIC [6]: 0.39 µg/mL
- responders at 50 mg/kg [8, 14]: 100%

Structure (SMILES): CN(CC(=O)N[C@@H](C(=O)N[C@@H]1C(=O)N2[C@@H]1SC(C)(C)[C@@H]2C(=O)O)c1ccccc1)C(=N)N [CH2 N(CH3)--C(NH)NH2, R=H, 6-{D-2-Phenyl-2-[(1-Methylguanidino)Acetamido]Acetamido}-Penicillanic Acid]
- MIC [1]: 6.25 µg/mL (≈ 13.5 µM)
- MIC [2]: 50 µg/mL (≈ 108 µM)
- MIC [3]: 12.5 µg/mL (≈ 27 µM)
- MIC [4]: 3.12 µg/mL (≈ 6.75 µM)
- MIC [5]: 6.25 µg/mL (≈ 13.5 µM)
- MIC [9]: 100 µg/mL (≈ 216 µM)
- MIC [6]: 6.25 µg/mL (≈ 13.5 µM)
- MIC [10]: 6.25 µg/mL (≈ 13.5 µM)
- MIC [7]: 3.12 µg/mL (≈ 6.75 µM)
- responders at 50 mg/kg [8]: 60%

Structure (SMILES): CN(CC(=O)N[C@@H](C(=O)N[C@@H]1C(=O)N2[C@@H]1SC(C)(C)[C@@H]2C(=O)OCOC(=O)C(C)(C)C)c1ccccc1)C(=N)N [CH2 N(CH3)--C(NH)NH2, R=POM, 6-{D-2-Phenyl-2-[(1-Methylguanidino)Acetamido]Acetamido}-Penicillanic Acid, Pivaloyloxymethyl Ester, Hydrochloride]
- MIC [1]: 12.5 µg/mL
- MIC [4]: 3.12 µg/mL
- MIC [6]: 12.5 µg/mL
- responders at 50 mg/kg [8]: 70%

Structure (SMILES): CC1(C)S[C@@H]2[C@H](NC(=O)[C@H](NC(=O)CNC3=NCCN3)c3ccccc3)C(=O)N2[C@H]1C(=O)O [CH2 NH--.angle..vertline., R=H, 6-[D-2-Phenyl-2-(2-Imidazolinylaminoacetamido)Acetamido]Penicillanic Acid]
- MIC [1]: 12.5 µg/mL (≈ 26.3 µM)
- MIC [2]: 6.25 µg/mL (≈ 13.2 µM)
- MIC [3]: 3.12 µg/mL (≈ 6.57 µM)
- MIC [4]: 3.12 µg/mL (≈ 6.57 µM)
- MIC [5]: 3.12 µg/mL (≈ 6.57 µM)
- MIC [9]: 100 µg/mL (≈ 211 µM)
- MIC [6]: 3.12 µg/mL (≈ 6.57 µM)
- MIC [10]: 6.25 µg/mL (≈ 13.2 µM)
- MIC [7]: 25 µg/mL (≈ 52.7 µM)
- responders at 50 mg/kg [8]: 90%

Structure (SMILES): CC(C)(C)C(=O)OCOC(=O)[C@@H]1N2C(=O)[C@@H](NC(=O)[C@H](NC(=O)CNC(=N)N)c3ccccc3)[C@H]2SC1(C)C [CH2 NH--C(NH)NH2, R=POM, 6-[D-2-Phenyl-2-(Guanidinoacetamido)Acetamido]Penicillanic Acid, Pivaloyloxymethyl Ester, Hydrochloride]
- MIC [1]: 25 µg/mL
- MIC [4]: 0.78 µg/mL
- MIC [6]: 50 µg/mL
- responders at 50 mg/kg [8, 14]: 90%

Structure (SMILES): CC1(C)S[C@@H]2[C@H](NC(=O)[C@H](N)c3ccccc3)C(=O)N2[C@H]1C(=O)O [D-α-aminobenzylpenicillin, reference compound]
- MIC [1]: 3.1 µg/mL (≈ 8.87 µM)
- MIC [2]: 200 µg/mL (≈ 572 µM)
- MIC [3]: 200 µg/mL (≈ 572 µM)
- MIC [4]: 0.78 µg/mL (≈ 2.23 µM)
- MIC [5]: 6 µg/mL (≈ 17.2 µM)
- MIC [6]: 1.5 µg/mL (≈ 4.29 µM)
- MIC [7]: 200 µg/mL (≈ 572 µM)
- responders at 50 mg/kg [8, 14]: 100%
- ED50 ([11]; oral): 25 ± 13 mg/kg
- ED50 ([11]; sc, subcutaneous): 27 ± 9 mg/kg
- ED50 ([12]; oral): 2.5 ± 0.7 mg/kg
- ED50 ([12]; sc, subcutaneous): 0.67 ± 0.4 mg/kg
- ED50 ([13]; oral): > 200 mg/kg
- ED50 ([13]; sc, subcutaneous): > 200 mg/kg
- activity against Pseudomonas aeruginosa (in words) ([13]; in vivo): inactive

Structure (SMILES): CC1(C)S[C@@H]2[C@H](NC(=O)[C@H](NC(=O)c3ccc(NC(=N)N)cc3)c3ccccc3)C(=O)N2[C@H]1C(=O)O [NH--C(NH)NH2 [1st of 4], R=H]
- MIC [1]: 3.12 µg/mL (≈ 6.11 µM)
- MIC [2]: 0.78 µg/mL (≈ 1.53 µM)
- MIC [3]: 0.78 µg/mL (≈ 1.53 µM)
- MIC [4]: 0.78 µg/mL (≈ 1.53 µM)
- MIC [5]: 6.25 µg/mL (≈ 12.2 µM)
- MIC [9]: 25 µg/mL (≈ 49 µM)
- MIC [6]: 3.12 µg/mL (≈ 6.11 µM)
- MIC [10]: 12.5 µg/mL (≈ 24.5 µM)
- MIC [7]: 3.12 µg/mL (≈ 6.11 µM)
- responders at 50 mg/kg [8, 14]: 10%

Structure (SMILES): CC1(C)S[C@@H]2[C@H](NC(=O)[C@H](NC(=O)c3cccc(NC(=N)N)c3)c3ccccc3)C(=O)N2[C@H]1C(=O)O [NH--C(NH)NH2 [2nd of 4], R=H]
- MIC [1]: 3.12 µg/mL (≈ 6.11 µM)
- MIC [2]: 1.56 µg/mL (≈ 3.06 µM)
- MIC [3]: 1.56 µg/mL (≈ 3.06 µM)
- MIC [4]: 0.78 µg/mL (≈ 1.53 µM)
- MIC [5]: 3.12 µg/mL (≈ 6.11 µM)
- MIC [9]: 12.5 µg/mL (≈ 24.5 µM)
- MIC [6]: 6.25 µg/mL (≈ 12.2 µM)
- MIC [10]: 25 µg/mL (≈ 49 µM)
- MIC [7]: 12.5 µg/mL (≈ 24.5 µM)
- responders at 50 mg/kg [8, 14]: 60%

Structure (SMILES): CC1(C)S[C@@H]2[C@H](NC(=O)[C@H](NC(=O)Cc3ccc(NC(=N)N)cc3)c3ccccc3)C(=O)N2[C@H]1C(=O)O [NH--C(NH)NH2 [4th of 4], R=H]
- MIC [1]: 6.25 µg/mL (≈ 11.9 µM)
- MIC [2]: 6.25 µg/mL (≈ 11.9 µM)
- MIC [3]: 3.12 µg/mL (≈ 5.95 µM)
- MIC [4]: 1.56 µg/mL (≈ 2.97 µM)
- MIC [5]: 12.5 µg/mL (≈ 23.8 µM)
- MIC [6]: 12.5 µg/mL (≈ 23.8 µM)
- MIC [7]: 25 µg/mL (≈ 47.7 µM)
- responders at 50 mg/kg [8, 14]: 20%
